SMILES strings stand for the structures.

Here are results for two compounds from patent US7429482B2, “Screening tools for discovery of novel anabolic agents” (United States of America as represented by the Department …, priority 2005, dated 2008).

In one data set the test system is MAFbx. Put plainly: Acute denervation: MAFbx mRNA in EDL and soleus (qPCR). It counts as in vivo, rat. Particulars: nandrolone 1.5 mg/kg/wk 14 days. On the procedure: (§1) Male Wistar rats weighing 250 gm (Taconic Farms, Germantown, N.Y.) were provided food and water ad libitum and were housed in a temperature and humidity controlled environment providing a 12:12 hour day-night cycle. For surgical procedures, animals were anesthetized with ketamine/xylazine. The left sciatic nerve was exposed by blunt dissection, and a 1 to 2 mm piece of this nerve was excised just below the level of the femoral head. A sham surgery was performed on the right hind limb in which the sciatic nerve was exposed but was not transected. Model 2002 Alzet pumps were implanted subcutaneously on the back. […] A pellet containing 15 mg of testosterone (Innovative Research of America, Sarasota, Fla.) administered as a continuous infusion (5 mg/wk), or a pellet containing placebo, was inserted into a subcutaneous pouch. […] Because testosterone is known to have anabolic actions (Ferrando et al., Am J Physiol Endocrinol Metab 282: E601-E607, 2002; Mauras et al., J Clin Endocrinol Metab 83: 1886-1892, 1998; Urban et al., Am J Physiol 269: E820-E826, 1995), reductions in levels of this hormone could affect muscle mass and confound interpretation of the results. Animals were euthanized 14 days later by inhalation of carbon dioxide. […]
(§2) Total RNA was extracted from skeletal muscle (20 mg) by homogenization in guanidine thiocyanate using a Polytron followed by extraction using phenol-chloroform (Chomczynski and Sacchi, Anal Biochem 162: 156-159, 1987). […] Total RNA was then eluted and quantified by absorbance at 260 nm. […] Levels of gene expression in the denervated muscle were expressed as fold induction relative to muscle from the sham-denervated leg of animals administered vehicle. […] Fold-induction was determined using the 2^−ΔΔCt method, using expression of 18S RNA as the normalization control. […]
A general note: Real-time PCR tracks product formation cycle by cycle.

For the next data set, the system named is IGFBP-5. Briefly: Chronic denervation: IGFBP-5 mRNA in gastrocnemius (qPCR). In kind it is in vivo, rat. As for the experimental part: (§3) Male Wistar rats weighing 200-250 gm (Taconic Farms, Germantown, N.Y.) were provided food and water ad libitum and were housed in a temperature and humidity controlled environment providing a 12:12 hour day-night cycle. For surgical procedures, animals were anesthetized with ketamine/xylazine. The left sciatic nerve was exposed by blunt dissection, and a 1 to 2 mm piece of this nerve was excised just below the level of the femoral head. A sham surgery was performed on the right hind limb in which the sciatic nerve was exposed but was not transected. Twenty eight days later, animals were anesthetized, and Alzet pumps were implanted subcutaneously on the back. […] Testosterone levels after replacement were approximately 15 nM, a high-normal range for rats of this age. Animals were sacrificed 3, 7 or 28 days after implantation of the miniosmotic pumps by inhalation of carbon dioxide. Gastrocnemius muscles were excised and weighed, then flash frozen on dry ice and stored at −80° C.
Total RNA was extracted from skeletal muscle (20 mg) by homogenization in guanidine thiocyanate using a Polytron followed by extraction of total RNA with phenol-chloroform as described by (Chomczynski and Sacchi, Anal Biochem 162: 156-159, 1987). Total RNA was further enriched using RNAeasy minicolumns (Qiagen, Valencia, Calif.). This procedure included digestion of contaminating DNA on the column with RNAse-free DNAse (Qiagen). Total RNA was eluted and quantified by absorbance at 260 nm. One μg of total RNA was used to prepare a cDNA library by reverse transcription (High Capacity cDNA Archive Kit, Applied Biosystems). Libraries were diluted 25-fold with water. Real time PCR was performed Taqman 2×PCR buffer (Applied Biosystems) using an Applied Biosystems 7500 thermocycler. Levels of gene expression in the denervated muscle were expressed as fold induction relative to muscle from the sham-denervated leg of animals administered vehicle. […] Fold-induction was determined using the 2^−ΔΔCt method, using expression of 18S RNA as the normalization control. […]

A further data set relates to MuRF1. Put plainly: Acute denervation: MuRF1 mRNA in EDL and soleus (qPCR). It counts as in vivo, rat. Particulars: nandrolone 1.5 mg/kg/wk 14 days. On the procedure:
as §1, §2

Data set [1] can be described thus: Testosterone levels after replacement in rats. In kind it is in vivo. The note with it: rat, testosterone 0.7 mg/day continuous infusion. On the procedure:
as §3

Consider `C[C@]12CC[C@H]3[C@@H](CCC4=CC(=O)CC[C@@H]43)[C@@H]1CC[C@@H]2O` [nandrolone], for which the MAFbx expression entry is listed as “reductions were not statistically significant” with MAFbx (denervated EDL), “significantly reduced” in the data set on MAFbx (denervated soleus) and “did not significantly alter” in the data set with MAFbx (sham-denervated EDL or soleus). Moreover, the IGFBP-5 expression result is “tended to reduce” in the data set with IGFBP-5 (denervated muscle, 56-days); “did not significantly alter” in the data set with IGFBP-5 (denervated muscle, any time tested); “did not appreciably alter” in the data set with IGFBP-5 (sham-denervated muscle). Moreover, the MuRF1 expression entry with MuRF1 (denervated EDL) is “significantly reduced”; with MuRF1 (denervated soleus) it was “significantly decreased”; in the data set with MuRF1 (sham-denervated soleus or EDL) it was “did not significantly affect”.
Turning to `C[C@]12CC[C@H]3[C@@H](CCC4=CC(=O)CC[C@@]43C)[C@@H]1CC[C@@H]2O` [testosterone], the “testosterone levels after replacement” value in data set [1] was “approximately 15 nM”.
